Test system: control human primary myoblasts
Assay: Expression microarray of primary myoblasts transduced with lentivirus carrying DUX4-fl, DUX4-s or GFP
Details: cultured human skeletal muscle
Description: Primary human myoblasts were collected and cultured as previously described (Snider et al., 2010). Primary myoblasts were maintained at or below 70% confluency for proliferation. For differentiation, cells were allowed to reach 95-100% confluency in growth medium. Once confluency was reached, the cells were changed to differentiation medium (F10 media supplemented with 1% horse serum, 10 μg/mL insulin, and 10 μg/mL transferrin, penicillin/streptomycin) and maintained for 4 days. Human RD cells were grown in DMEM in 10% bovine calf serum (Hyclone) and penicillin/streptomycin. The primary myoblasts were transduced with lentivirus carrying DUX-fl, DUX4- or GFP (MOI=15).
Expression microarrays were performed on the transduced cells at 24 hours after transduction as follows. […] Samples were analyzed by Illumina Human Whole Genome microarrays. Probe intensities were corrected, normalized, and summarized by the Lumi package of Bioconductor (Du et al., 2008). Differentially expressed genes were identified by the LIMMA package of Bioconductor (Wettenhall and Smyth, 2004). Gene set enrichment analysis (GSEA) was performed using the Bioconductor GOstats package (Falcon and Gentleman, 2007).

DUX4-fl: full-length DUX4 protein (SEQ ID NO:110), expressed from lentiviral or pCS2 vectors or in vitro translated
MT1A expression fc: −1.526 | MT2A expression fc: −1.443 | MUC1 expression fc: −1.74 | MYBPHL expression fc: −1.492 | MYF5 expression fc: −1.587 | MYH13 expression fc: −1.441 | NACC2 expression fc: −1.787 | NFIL3 expression fc: −1.823 | NFKB1 expression fc: −1.512 | NFKBIZ expression fc: −1.572 | NINJ1 expression fc: −1.694 | NPTX2 expression fc: −1.386 | NRXN2 expression fc: −1.627 | NT5E expression fc: −1.558 | OCEL1 expression fc: −1.412 | P2RX6 expression fc: −1.475 | PARP3 expression fc: −1.483 | PCK2 expression fc: −1.776 | PCTK3 expression fc: −1.641 | PDK4 expression fc: −1.521 | PDPN expression fc: −1.623 | PFKFB4 expression fc: −1.865 | PHF15 expression fc: −1.415 | PHLDA3 expression fc: −1.557 | PLA2G4C expression fc: −1.429 | PLEKHA4 expression fc: −1.457 | PLIN2 expression fc: −1.413 | PLXNB1 expression fc: −1.442 | PLXNB2 expression fc: −1.649 | PPAP2B expression fc: −1.742 | PPP3CC expression fc: −1.457 | PRDM1 expression fc: −1.573 | PRKCD expression fc: −1.531 | PSMB10 expression fc: −1.6 | PSME2 expression fc: −1.477 | PTGES expression fc: −1.632 | PTPRU expression fc: −1.477 | RALGDS expression fc: −1.475 | RBCK1 expression fc: −1.636 | RBM43 expression fc: −1.517 | RCAN1 expression fc: −1.566 | RELB expression fc: −1.391 | RGS20 expression fc: −1.478 | RHBDF2 expression fc: −1.741 | RRAS expression fc: −1.405 | RRBP1 expression fc: −1.483 | RTKN expression fc: −1.734 | RTTN expression fc: −1.663 | RUSC1 expression fc: −1.47 | SERPING1 expression fc: −1.668 | SESN1 expression fc: −1.581 | SHISA5 expression fc: −1.763 | SIX5 expression fc: −1.673 | SLC16A3 expression fc: −1.582 | SLC22A18 expression fc: −1.56 | SLC25A28 expression fc: −1.534 | SLC39A14 expression fc: −1.872 | SPTLC3 expression fc: −1.444 | SQSTM1 expression fc: −1.695 | SRGN expression fc: −1.873 | STC1 expression fc: −1.571 | STEAP3 expression fc: −1.405 | SUSD2 expression fc: −1.398 | TAPBP expression fc: −1.844 | TCEA3 expression fc: −1.706 | TCP11L1 expression fc: −1.532 | TMEM45A expression fc: −1.574 | TMEM173 expression fc: −1.816 | TNFAIP2 expression fc: −1.593 | TNFRSF1A expression fc: −1.672 | TNFRSF6B expression fc: −1.678 | TNFSF13B expression fc: −1.763 | TNS3 expression fc: −1.56 | TRAF3IP2 expression fc: −1.529 | TRIP6 expression fc: −1.457 | TRNP1 expression fc: −1.527 | TSC22D3 expression fc: −1.729 | VASN expression fc: −1.76 | VEZF1 expression fc: −1.528 | XBP1 expression fc: −1.679
